Where a name gives a salt, the structure may show the parent alone.
Assays:
[1] = target: T1, human JAK2 kinase domain (JH1) (Homo sapiens, UniProt O60674); assay: JH1 biochemical assay for JAK2 (ADP-Glo kinase assay, recombinant JH1 catalytic domain, JAK3-974 peptide, 15 μM ATP)
T1 construct: recombinantly generated catalytic kinase (also known as JH1) domain of human JAK1, JAK2, JAK3 and TYK2
Method: (§1) Compounds of the disclosure were assessed for their ability to inhibit TYK2, JAK1, JAK2, and JAK3 activity. The inhibitory properties of the compounds of the disclosure described herein can be evidenced by testing in any one of the following protocols.
(§2) The kinase activity of recombinantly generated catalytic kinase (also known as JH1) domain of human JAK1, JAK2, JAK3 and TYK2 were evaluated in a plate-based assay using the ADP-Glo™ Kinase Assay platform. Specifically, 4 nM of recombinant JAK1 kinase domain is used to phosphorylate 50 μM of a JAK3-342 (sequence ALVDGYFRLTT) peptide in the presence of 35 μM ATP. Catalytic activities of recombinant JAK2, JAK3 and TYK2 kinase domain (0.2, 0.3 and 2 nM, respectively) are evaluated by the phosphorylation status of the JAK3-974 (50 μM; sequence LPLDKDYYVVR) peptide with the addition of ATP (15, 4 and 10 μM, respectively). The reactions proceed for 100 minutes and the catalytic activity is quantified by first depleting the unused ATP, converting the hydrolyzed ADP into ATP to generate luminescence in a luciferase reaction; which is the basis of the ADP-Glo platform. Compounds are tested at either 10 μM or 1 μM top concentration, 11 points of 3-fold dilution. The data is normalized and the percent activity versus log concentration of compound is fitted with a 4-parameter logistic model to generate a curve and an IC50 value.

[2] = target: T2, human JAK3 kinase domain (JH1) (Homo sapiens, UniProt P52333); assay: JH1 biochemical assay for JAK3 (ADP-Glo kinase assay, recombinant JH1 catalytic domain, JAK3-974 peptide, 4 μM ATP)
T2 construct: recombinantly generated catalytic kinase (also known as JH1) domain of human JAK1, JAK2, JAK3 and TYK2
T2 sequence (P52333 822-1111 limits assumed): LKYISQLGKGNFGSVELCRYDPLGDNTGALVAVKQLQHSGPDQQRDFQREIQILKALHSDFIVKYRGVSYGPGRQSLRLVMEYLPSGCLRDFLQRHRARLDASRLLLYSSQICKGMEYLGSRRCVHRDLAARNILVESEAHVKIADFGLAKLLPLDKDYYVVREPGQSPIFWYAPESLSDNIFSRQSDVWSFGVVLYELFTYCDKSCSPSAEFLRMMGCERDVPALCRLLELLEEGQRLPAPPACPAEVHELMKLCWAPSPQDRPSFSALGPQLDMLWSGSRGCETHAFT
Method: as §1, §2

[3] = target: T3, human TYK2 kinase domain (JH1) (Homo sapiens, UniProt P29597); assay: JH1 biochemical assay for TYK2 (ADP-Glo kinase assay, recombinant JH1 catalytic domain, JAK3-974 peptide, 10 μM ATP)
T3 construct: recombinantly generated catalytic kinase (also known as JH1) domain of human JAK1, JAK2, JAK3 and TYK2
T3 sequence (P29597 897-1176 limits assumed): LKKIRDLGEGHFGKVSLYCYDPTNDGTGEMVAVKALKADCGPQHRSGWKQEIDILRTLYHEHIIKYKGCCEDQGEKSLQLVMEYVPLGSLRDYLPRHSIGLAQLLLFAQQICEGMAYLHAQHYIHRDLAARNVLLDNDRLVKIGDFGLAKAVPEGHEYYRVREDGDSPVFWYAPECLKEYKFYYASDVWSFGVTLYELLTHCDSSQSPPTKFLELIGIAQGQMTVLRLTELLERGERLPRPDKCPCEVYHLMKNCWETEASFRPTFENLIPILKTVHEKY
Method: as §1, §2

[4] = target: T4, human JAK1 kinase domain (JH1) (Homo sapiens, UniProt P23458); assay: JH1 biochemical assay for JAK1 (ADP-Glo kinase assay, recombinant JH1 catalytic domain, JAK3-342 peptide, 35 μM ATP)
T4 construct: recombinantly generated catalytic kinase (also known as JH1) domain of human JAK1, JAK2, JAK3 and TYK2
T4 sequence (P23458 875-1153 limits assumed): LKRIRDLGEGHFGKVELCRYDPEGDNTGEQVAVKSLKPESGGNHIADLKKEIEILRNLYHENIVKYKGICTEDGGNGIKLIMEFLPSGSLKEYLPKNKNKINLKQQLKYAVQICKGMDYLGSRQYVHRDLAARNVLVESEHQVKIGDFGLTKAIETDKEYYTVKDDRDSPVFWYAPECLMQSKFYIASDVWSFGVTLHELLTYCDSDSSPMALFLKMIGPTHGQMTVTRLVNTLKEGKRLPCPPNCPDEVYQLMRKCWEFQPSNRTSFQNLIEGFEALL
Method: as §1, §2

T1 sequence (O60674 849-1124 limits assumed): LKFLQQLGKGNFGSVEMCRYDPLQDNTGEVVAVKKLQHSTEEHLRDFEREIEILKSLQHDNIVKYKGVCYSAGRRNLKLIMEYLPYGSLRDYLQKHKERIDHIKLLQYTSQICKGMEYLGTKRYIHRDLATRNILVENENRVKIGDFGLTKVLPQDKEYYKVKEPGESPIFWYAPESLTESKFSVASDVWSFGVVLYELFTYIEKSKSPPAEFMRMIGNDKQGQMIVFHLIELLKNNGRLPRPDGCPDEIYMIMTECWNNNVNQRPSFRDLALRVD

Row | SMILES | IC50 ([1]; JH1 kinase domain, ADP-Glo) [nM] | IC50 ([2]; JH1 kinase domain, ADP-Glo) [nM] | IC50 ([3]; JH1 kinase domain, ADP-Glo) [nM] | IC50 ([4]; JH1 kinase domain, ADP-Glo) [nM] | IC50 ([1]; JAK2 JH1, ADP-Glo) [nM] | IC50 ([2]; JAK3 JH1, ADP-Glo) [nM] | IC50 ([3]; TYK2 JH1, ADP-Glo) [nM] | IC50 ([4]; JAK1 JH1, ADP-Glo) [nM]
1 | CC[C@H]1CN(c2ccnn3cc(-c4cnn(C)c4)cc23)C(=O)[C@@]1(C#N)C1CC1 [Example 25, (3S,4R)-3-cyclopropyl-4-ethyl-1-(6-(1-methyl-1H-pyrazol-4-yl)pyrrolo[1,2-b]pyridazin-4-yl)-2-oxopyrrolidine-3-carbonitrile] | > 10000 | > 10000 | > 100 | > 10000 |  |  |  | 
2 | C[C@@H]1CN(c2nccn3nc(-c4cnn(C)c4)cc23)C(=O)[C@]1(C#N)C1CC1 [Example 216, (3R,4S)-3-cyclopropyl-4-methyl-1-(2-(1-methyl-1H-pyrazol-4-yl)pyrazolo[1,5-a]pyrazin-4-yl)-2-oxopyrrolidine-3-carbonitrile] | > 10000 | > 10000 | > 100 | > 10000 |  |  |  | 
3 | CC[C@H]1C[C@@](C#N)(C2CC2)C(=O)N1c1ccnn2cc(C3=NC(C)N=C3)cc12 (stereo partly drawn) [Example 19, (3S,5S)-3-cyclopropyl-5-ethyl-1-(6-(2-methyl-2H-imidazol-4-yl)pyrrolo[1,2-b]pyridazin-4-yl)-2-oxopyrrolidine-3-carbonitrile] | > 10000 | > 10000 | > 100 | > 10000 |  |  |  | 
4 | COc1ncc(-c2cc3c(N4C[C@@H](C)[C@@](C#N)(C5CC5)C4=O)ccnn3c2)cc1C#N [Example 85, 5-(4-((3R,4S)-3-cyano-3-cyclopropyl-4-methyl-2-oxopyrrolidin-1-yl)pyrrolo[1,2-b]pyridazin-6-yl)-2-methoxynicotinonitrile] | 1000 to 5000 | 1000 to 5000 | 20 to 50 | 1000 to 5000 |  |  |  | 
5 | Cc1nn(C)c(C)c1-c1cn2nccc2c(N2C[C@@H](C)[C@@](C#N)(C3CC3)C2=O)n1 [Example 200, (3R,4S)-3-cyclopropyl-4-methyl-2-oxo-1-(6-(1,3,5-trimethyl-1H-pyrazol-4-yl)pyrazolo[1,5-a]pyrazin-4-yl)pyrrolidine-3-carbonitrile] | 1000 to 5000 | 100 to 1000 | 20 to 50 | 100 to 1000 |  |  |  | 
6 | COc1ccc(-c2cn3nccc3c(N3C[C@@H](C)[C@@](C#N)(C4CC4)C3=O)n2)cn1 [Example 224, (3R,4S)-3-cyclopropyl-1-(6-(6-methoxypyridin-3-yl)pyrazolo[1,5-a]pyrazin-4-yl)-4-methyl-2-oxopyrrolidine-3-carbonitrile] |  |  |  |  | 1000 to 5000 | 1000 to 5000 | 20 to 50 | 100 to 1000
7 | CC[C@@H]1CN(c2ccnn3cc(-c4cnn(C)c4)cc23)C(=O)[C@@]1(C#N)C1CC1 [Example 26, (3S,4S)-3-cyclopropyl-4-ethyl-1-(6-(1-methyl-1H-pyrazol-4-yl)pyrrolo[1,2-b]pyridazin-4-yl)-2-oxopyrrolidine-3-carbonitrile] | > 10000 | > 10000 | > 100 | > 10000 |  |  |  | 
8 | C[C@@H]1CN(c2nc(-c3cccc4cnn(C)c34)cn3nccc23)C(=O)[C@]1(C#N)C1CC1 [Example 242, (3R,4S)-3-cyclopropyl-4-methyl-1-(6-(1-methyl-1H-indazol-7-yl)pyrazolo[1,5-a]pyrazin-4-yl)-2-oxopyrrolidine-3-carbonitrile] |  |  |  |  | > 10000 | > 10000 | > 100 | > 10000
9 | Cn1cc(-c2cc3c(N4CC[C@@](C#N)(C5CCC5)C4=O)ccnn3c2)cn1 (single isomer, unassigned) [Example 46] | 1000 to 5000 | 100 to 1000 | > 100 | 5000 to 10000 |  |  |  | 
10 | COc1ncc(-c2cn3nccc3c(N3C[C@@H](C)[C@@](C#N)(C4CC4)C3=O)n2)cc1C#N [Example 262, 5-(4-((3R,4S)-3-cyano-3-cyclopropyl-4-methyl-2-oxopyrrolidin-1-yl)pyrazolo[1,5-a]pyrazin-6-yl)-2-methoxynicotinonitrile trifluoroacetate] |  |  |  |  | > 10000 | > 10000 | 20 to 50 | > 10000
11 | C[C@@H]1CN(c2nc(-c3ncccc3F)cn3nccc23)C(=O)[C@]1(C#N)C1CC1 [Example 212, (3R,4S)-3-cyclopropyl-1-(6-(3-fluoropyridin-2-yl)pyrazolo[1,5-a]pyrazin-4-yl)-4-methyl-2-oxopyrrolidine-3-carbonitrile] | > 10000 | 1000 to 5000 | 50 to 100 | 1000 to 5000 |  |  |  | 

Other lines, results leading:

Row | IC50 ([1]; JH1 kinase domain, ADP-Glo) [nM] | IC50 ([2]; JH1 kinase domain, ADP-Glo) [nM] | IC50 ([3]; JH1 kinase domain, ADP-Glo) [nM] | IC50 ([4]; JH1 kinase domain, ADP-Glo) [nM] | IC50 ([1]; JAK2 JH1, ADP-Glo) [nM] | IC50 ([2]; JAK3 JH1, ADP-Glo) [nM] | IC50 ([3]; TYK2 JH1, ADP-Glo) [nM] | IC50 ([4]; JAK1 JH1, ADP-Glo) [nM] | SMILES
12 | > 10000 | > 10000 | > 100 | 5000 to 10000 |  |  |  |  | CCc1ccncc1-c1cc2c(N3C[C@@H](C)[C@@](C#N)(C4CC4)C3=O)ccnn2c1 [Example 175, (3R,4S)-3-cyclopropyl-1-(6-(4-ethylpyridin-3-yl)pyrrolo[1,2-b]pyridazin-4-yl)-4-methyl-2-oxopyrrolidine-3-carbonitrile trifluoroacetate]
13 | 100 to 1000 | 100 to 1000 | 5 to 20 | 100 to 1000 |  |  |  |  | CC(O)c1ccc(-c2cc3c(N4C[C@@H](C)[C@@](C#N)(C5CC5)C4=O)ccnn3c2)nc1 (stereo partly drawn) [Example 130, (3R,4S)-3-cyclopropyl-1-(6-(5-(1-hydroxyethyl)pyridin-2-yl)pyrrolo[1,2-b]pyridazin-4-yl)-4-methyl-2-oxopyrrolidine-3-carbonitrile trifluoroacetate]
14 | 1000 to 5000 | 100 to 1000 | 20 to 50 | 1000 to 5000 |  |  |  |  | Cc1nc(-c2cc3c(N4C[C@@H](C)[C@@](C#N)(C5CC5)C4=O)ccnn3c2)ccc1C#N [Example 119, 6-(4-((3R,4S)-3-cyano-3-cyclopropyl-4-methyl-2-oxopyrrolidin-1-yl)pyrrolo[1,2-b]pyridazin-6-yl)-2-methylnicotinonitrile trifluoroacetate]
15 | 5000 to 10000 | 1000 to 5000 | > 100 | 1000 to 5000 |  |  |  |  | C[C@@H]1CN(c2ccnn3cc(-c4cc(C(F)(F)F)ncn4)cc23)C(=O)[C@]1(C#N)C1CC1 [Example 121, (3R,4S)-3-cyclopropyl-4-methyl-2-oxo-1-(6-(6-(trifluoromethyl)pyrimidin-4-yl)pyrrolo[1,2-b]pyridazin-4-yl)pyrrolidine-3-carbonitrile trifluoroacetate]
16 | 1000 to 5000 | 100 to 1000 | 20 to 50 | 100 to 1000 |  |  |  |  | COc1cccc(-c2cc3c(N4C[C@@H](C)[C@@](C#N)(C5CC5)C4=O)ccnn3c2)n1 [Example 143, (3R,4S)-3-cyclopropyl-1-(6-(6-methoxypyridin-2-yl)pyrrolo[1,2-b]pyridazin-4-yl)-4-methyl-2-oxopyrrolidine-3-carbonitrile trifluoroacetate]
17 | 1000 to 5000 | 1000 to 5000 | 20 to 50 | 1000 to 5000 |  |  |  |  | C[C@@H]1CN(c2ccnn3cc(-c4cccc5nccn45)cc23)C(=O)[C@]1(C#N)C1CC1 [Example 141, (3R,4S)-3-cyclopropyl-1-(6-(imidazo[1,2-a]pyridin-5-yl)pyrrolo[1,2-b]pyridazin-4-yl)-4-methyl-2-oxopyrrolidine-3-carbonitrile trifluoroacetate]
18 | > 10000 | > 10000 | > 100 | > 10000 |  |  |  |  | C[C@H]1CN(c2ccnn3cc(-c4cnn(C)c4)cc23)C(=O)[C@@]1(C#N)C1CC1 [Example 29, (3S,4R)-3-cyclopropyl-4-methyl-1-(6-(1-methyl-1H-pyrazol-4-yl)pyrrolo[1,2-b]pyridazin-4-yl)-2-oxopyrrolidine-3-carbonitrile]
19 | 1000 to 5000 | 1000 to 5000 | 20 to 50 | 1000 to 5000 |  |  |  |  | Cc1cc(-c2cc3c(N4C[C@@H](C)[C@@](C#N)(C5CC5)C4=O)ccnn3c2)ncc1F [Example 142, (3R,4S)-3-cyclopropyl-1-(6-(5-fluoro-4-methylpyridin-2-yl)pyrrolo[1,2-b]pyridazin-4-yl)-4-methyl-2-oxopyrrolidine-3-carbonitrile trifluoroacetate]
20 | 1000 to 5000 | 1000 to 5000 | 20 to 50 | 1000 to 5000 |  |  |  |  | Cc1cc(-c2cc3c(N4C[C@@H](C)[C@@](C#N)(C5CC5)C4=O)ccnn3c2)ncc1C#N [Example 144, 6-(4-((3R,4S)-3-cyano-3-cyclopropyl-4-methyl-2-oxopyrrolidin-1-yl)pyrrolo[1,2-b]pyridazin-6-yl)-4-methylnicotinonitrile trifluoroacetate]

— patent US20260297085A1, “1 H-PYRROLO[2,3-B]PYRIDIN-4-YL]-2-OXOPYRROLIDINE-3-CARBONITRILE DERIVATIVES AS TYROSINE KINASE 2 (TYK2) INHIBITORS FOR THE TREATMENT OF INFLAMMATORY DISEASES” (BIOGEN MA INC., priority 2023, published 2026)
